From US20250171459A1, “2-METHYL-4',5'-DIHYDROSPIRO[PIPERIDINE-4,7'-THIENO[2,3-C]PYRAN] DERIVATIVES AS INHIBITORS OF APOL1 AND METHODS OF USING SAME” (Vertex Pharmaceuticals Incorporated, priority 2022, published 2025)

Molecular target: T1, APOL1 (Homo sapiens, UniProt O14791)
T1 sequence (O14791 1-398 S342G/I384M): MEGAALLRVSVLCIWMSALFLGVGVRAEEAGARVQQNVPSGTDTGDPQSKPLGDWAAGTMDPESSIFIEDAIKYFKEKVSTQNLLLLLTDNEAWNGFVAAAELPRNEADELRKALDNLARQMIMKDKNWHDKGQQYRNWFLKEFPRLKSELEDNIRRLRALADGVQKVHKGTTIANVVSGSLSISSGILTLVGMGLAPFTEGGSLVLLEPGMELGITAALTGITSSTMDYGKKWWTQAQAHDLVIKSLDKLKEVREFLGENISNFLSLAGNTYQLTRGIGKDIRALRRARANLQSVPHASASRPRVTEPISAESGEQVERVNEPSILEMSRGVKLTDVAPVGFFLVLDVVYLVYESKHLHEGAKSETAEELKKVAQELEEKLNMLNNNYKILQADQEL
Test: MultiTox-Fluor Multiplex Cytotoxicity Assay in tet-inducible APOL1 T-REx-HEK293 cells (cell rescue, ratio of dead to live cells)
Type: cell-based
Conditions: tet-inducible transgenic APOL1 T-REx-HEK293 cell lines, 50 ng/mL tet, 24 hours; read-out: IP50 (i.e., IC50 for cell proliferation)
Summary of the method: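 T-REx-HEK293 cells with tet-inducible APOL1 were treated with compound (10 μM top, 10-point 3-fold dilution, duplicate) plus 50 ng/mL tetracycline for 24 h at 37° C, in DMEM with 2% tet-free FBS. MultiTox-Fluor protease signals gave a dead/live ratio, normalized to no tet (100% viability) and tet alone (0%).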

SMILES	IC50
CCc1cc2c(s1)CCO[C@@]21CCN(C[C@H]2C[C@@H](NC(=O)Cn3cncn3)C2)[C@@H](C)C1 [Compound 354]	100 to 500 nM
CNC(=O)[C@H](O)Cn1cc(CN2CC[C@]3(C[C@@H]2C)OCCc2c3sc(C(F)(F)F)c2CO)cn1 [Compound 986, (2R)-2-hydroxy-3-[4-[[(2′S, 7R)-3-(hydroxymethyl)-2′-methyl-2-(trifluoromethyl)spiro[4,5-dihydrothieno[2,3-c]pyran-7,4′-piperidine]-1′-yl]methyl]pyrazol-1-yl]-N-methyl-propanamide]	< 100 nM
C[C@H]1C[C@@]2(CCN1Cc1cn3c(n1)CCC3)OC[C@H](O)c1cc(Cl)sc12 [Compound 786]	500 to 1000 nM
CNC(=O)Cn1cc(CN2CC[C@]3(C[C@@H]2C)OCCc2c3sc(C(F)(F)F)c2CO)cn1 [Compound 901]	< 100 nM
CCc1cc2c(s1)CCO[C@@]21CCN(C[C@H]2C[C@@H](NC(=O)C3(O)CC(O)C3)C2)[C@@H](C)C1 (stereo partly shown) [Compound 357]	< 100 nM
C[C@H]1C[C@@]2(CCN1Cc1cnn(CC(O)CO)c1)OCCc1c2sc(C(F)(F)F)c1CO (stereo partly shown) [Compound 934]	< 100 nM
C[C@H]1C[C@@]2(CCN1Cc1cnn(CC(O)C(C)(C)O)c1)OCCc1c2sc(C(F)(F)F)c1CO (stereo partly shown) [Compound 960]	< 100 nM
CCc1cc2c(s1)CCO[C@@]21CCN(C[C@@H](C)O)[C@@H](C)C1 [Compound 237]	100 to 500 nM
CCc1cc2c(s1)CCO[C@@]21CCN(Cc2cn(C3CN(C(=O)OC(C)(C)C)C3)nn2)[C@@H](C)C1 [Compound 21]	< 100 nM
C[C@H]1C[C@@]2(CCN1Cc1ccccc1F)OCCc1c2sc(Cl)c1CO [Compound 713]	100 to 500 nM
CCc1cc2c(s1)CCO[C@@]21CCN(CC2CN(C(=O)CCCOC)C2)[C@@H](C)C1 [Compound 439]	< 100 nM
COCCOCC(O)Cn1cc(CN2CC[C@]3(C[C@@H]2C)OCCc2c3sc(C(F)(F)F)c2CO)cn1 (stereo partly shown) [Compound 966]	< 100 nM
CCc1cc2c(s1)CCO[C@@]21CCN(CC2CN(C(=O)c3ccnn3C)C2)[C@@H](C)C1 [Compound 427]	< 100 nM
CCc1cc2c(s1)CCO[C@@]21CCN(Cc2cn(Cc3nnc[nH]3)nn2)[C@@H](C)C1 [Compound 65]	100 to 500 nM
C[C@H]1C[C@@]2(CCN1C1CC(O)C1)OCCc1cc(CC(F)F)sc12 (stereo partly shown) [Compound 591]	500 to 1000 nM
CCc1cc2c(s1)CCOC21CCN(Cc2cnc(-c3cccnc3)s2)CC1 [Compound 1136]	100 to 500 nM
CCc1cc2c(s1)CCO[C@@]21CCN(Cc2cn(-c3cncc(O)c3)nn2)[C@@H](C)C1 [Compound 16, 5-[4-[[(2′S,4R)-2-ethyl-2′-methyl-spiro[6,7-dihydrothieno[3,2-c]pyran-4,4′-piperidine]-1′-yl]methyl]triazol-1-yl]pyridin-3-ol]	100 to 500 nM
CCc1cc2c(s1)CCO[C@@]21CCN(Cc2cn(C3CC(O)C3)nn2)[C@@H](C)C1 (stereo partly shown) [Compound 152]	100 to 500 nM
CCc1cc2c(s1)CCO[C@@]21CCN(C[C@H]2C[C@@H](NC(=O)C(C)(C)C#N)C2)[C@@H](C)C1 [Compound 336]	100 to 500 nM
C[C@H]1C[C@@]2(CCN1Cc1cnn(CC(O)c3ccc(F)cn3)c1)OCCc1c2sc(C(F)(F)F)c1CO (stereo partly shown) [Compound 937]	< 100 nM

SMILES	IC50
C[C@H]1C[C@@]2(CCN1Cc1cnn(C3CN(S(C)(=O)=O)C3)c1)OCCc1c2sc(C(F)(F)F)c1CO [Compound 883]	< 100 nM
CCc1cc2c(s1)CCO[C@@]21CCN(CC2CN(C(=O)Cc3ccncc3)C2)[C@@H](C)C1 [Compound 438]	< 100 nM
CCc1cc2c(s1)CCO[C@@]21CCN(Cc2cnc(NCCN3CCNC3=O)nc2)[C@@H](C)C1 [Compound 221]	< 100 nM
CCCCC(O)C(=O)N[C@H]1C[C@@H](CN2CC[C@]3(C[C@@H]2C)OCCc2sc(CC)cc23)C1 (stereo partly shown) [Compound 306]	< 100 nM
CC(=CC(O)Cn1cc(CN2CC[C@]3(C[C@@H]2C)OC[C@@H](O)c2cc(C(F)(F)F)sc23)cn1)C1CC1 (stereo partly shown) [Compound 980]	100 to 500 nM
CCc1cc2c(s1)CCO[C@@]21CCN(Cc2cnc(OCC(C)(C)N)nc2)[C@@H](C)C1 [Compound 208]	< 100 nM
CCc1cc2c(s1)CCO[C@@]21CCN(Cc2cn(CC(O)Cc3ccc(F)cc3)nn2)[C@@H](C)C1 (stereo partly shown) [Compound 112]	< 100 nM
CCc1cc2c(s1)CCO[C@@]21CCN(C[C@H]2C[C@@H](NS(=O)(=O)C(F)(F)F)C2)[C@@H](C)C1 [Compound 411]	100 to 500 nM
CCc1cc2c(s1)CCO[C@@]21CCN(Cc2c[nH]c(C)n2)[C@@H](C)C1 [Compound 288]	< 100 nM
CCc1cc2c(s1)CCO[C@@]21CCN(C[C@H]2C[C@@H](NC(=O)C3(C(N)=O)CC3)C2)[C@@H](C)C1 [Compound 350]	100 to 500 nM
CCc1cc2c(s1)CCOC21CCN(Cc2cnc(NCCn3cccn3)nc2)CC1 [Compound 1078]	100 to 500 nM
C[C@H]1CC2(CCN1Cc1cnn(CCS(C)(=O)=O)c1)OCCc1c2sc2ccccc12 (stereo partly drawn) [Compound 1023, (2′S)-2′-methyl-1′-((1-(2-(methylsulfonyl)ethyl)-1H-pyrazol-4-yl)methyl)-3,4-dihydrospiro[benzo[4,5]thieno[2,3-c]pyran-1,4′-piperidine]]	500 to 1000 nM
CCc1cc2c(s1)CCO[C@@]21CCN(CC2CN(C(=O)COC)C2)[C@@H](C)C1 [Compound 436]	< 100 nM
C[C@H]1C[C@@]2(CCN1Cc1cnn(CCS(C)(=O)=O)c1)OCC(O)c1cc(C(F)(F)F)sc12 (stereo partly shown) [Compound 880]	< 100 nM
CCc1cc2c(s1)CCOC21CCN(Cc2cn(CC(O)c3cnn(C)c3)nn2)CC1 (stereo not shown) [Compound 1097]	500 to 1000 nM
Cc1nnc(Cn2cc(CN3CC[C@]4(C[C@@H]3C)OCCc3c4sc(C(F)(F)F)c3CO)cn2)o1 [Compound 923]	< 100 nM
CC(C)Cc1cc2c(s1)CCO[C@@]21CCN(Cc2cnn(C)c2)[C@@H](C)C1 [Compound 521]	< 100 nM
C[C@H]1C[C@@]2(CCN1Cc1ccn(C)n1)OCCc1cc(CC(F)F)sc12 [Compound 578]	< 100 nM
COCC(O)Cn1cc(CN2CC[C@]3(C[C@@H]2C)OCCc2c3sc(C(F)(F)F)c2CO)cn1 (stereo partly shown) [Compound 958]	< 100 nM
CCc1cc2c(s1)CCOC21CCN(Cc2cn(Cc3ccc(=O)[nH]c3)nn2)CC1 [Compound 1124]	500 to 1000 nM

SMILES	IC50
CCc1cc2c(s1)CCO[C@@]21CCN(C[C@H]2C[C@@H](NC(=O)c3cnn(CC(F)(F)F)c3)C2)[C@@H](C)C1 [Compound 310]	100 to 500 nM
COc1nccc(CN2CC[C@]3(C[C@@H]2C)OC[C@H](O)c2cc(Cl)sc23)n1 [Compound 805]	500 to 1000 nM
C[C@H]1C[C@@]2(CCN1Cc1cnn(C)c1)OCC(O)c1cc(Cl)sc12 (single isomer, unassigned) [Compound 819]	< 100 nM
C[C@H]1C[C@@]2(CCN1Cc1cnn(CC(O)c3ccnn3C)c1)OCCc1c2sc(C(F)(F)F)c1CO (stereo partly shown) [Compound 965]	< 100 nM
CCc1cc2c(s1)CCO[C@@]21CCN(CC2CN(C(=O)c3ccon3)C2)[C@@H](C)C1 [Compound 425]	< 100 nM
CCc1cc2c(s1)CCO[C@@]21CCN(C[C@H]2C[C@@H](NC(=O)CC3CC3(F)F)C2)[C@@H](C)C1 (stereo partly shown) [Compound 309]	< 100 nM
CCc1cc2c(s1)CCO[C@@]21CCN(CC2CN(C(=O)C3CCNC3=O)C2)[C@@H](C)C1 (stereo partly shown) [Compound 484]	< 100 nM
CCc1cc2c(s1)CCO[C@@]21CCN(Cc2cn(Cc3cnn(C)c3C)nn2)[C@@H](C)C1 [Compound 44]	< 100 nM
C[C@H]1C[C@@]2(CCN1C[C@@H](O)C(N)=O)OCCc1cc(Cl)sc12 [Compound 709, (2R)-3-[(2′S, 7R)-2-chloro-2′-methyl-spiro[4,5-dihydrothieno[2,3-c]pyran-7,4′-piperidine]-1′-yl]-2-hydroxy-propanamide]	100 to 500 nM
C[C@H]1C[C@@]2(CCN1C[C@H](O)C(N)=O)OCCc1sc(Cl)cc12 [Compound 508, (2S)-3-[(2′S,4R)-2-chloro-2′-methyl-spiro[6,7-dihydrothieno[3,2-c]pyran-4,4′-piperidine]-1′-yl]-2-hydroxy-propanamide]	100 to 500 nM
CCc1cc2c(s1)CCO[C@@]21CCN(Cc2cnc(N[C@@H](CO)[C@H](C)O)nc2)[C@@H](C)C1 [Compound 226]	< 100 nM
C[C@H]1C[C@@]2(CCN1Cc1cnn(CCS(C)(=O)=O)c1)OCCc1cc(C3CCC3)sc12 [Compound 1033, (2′S,7R)-2-cyclobutyl-2′-methyl-1′-[[1-(2-methylsulfonylethyl)pyrazol-4-yl]methyl]spiro[4,5-dihydrothieno[2,3-c]pyran-7,4′-piperidine]]	< 100 nM
C[C@H]1C[C@@]2(CCN1Cc1cnn(CC(O)C3(O)COC3)c1)OCCc1c2sc(C(F)(F)F)c1CO (stereo partly shown) [Compound 933]	< 100 nM
CCc1nnc(Cn2cc(CN3CCC4(CC3)OCCc3sc(CC)cc34)nn2)o1 [Compound 1087]	500 to 1000 nM
CCc1cc2c(s1)CCO[C@@]21CCN(Cc2cn(CC(C)(C)OCCO)nn2)[C@@H](C)C1 [Compound 98]	100 to 500 nM
CCc1cc2c(s1)CCO[C@@]21CCN(CC(=O)OC)[C@@H](C)C1 [Compound 283]	500 to 1000 nM
CCc1cc2c(s1)CCO[C@@]21CCN(C[C@H]2C[C@@H](NC(=O)OCc3ccccc3)C2)[C@@H](C)C1 [Compound 380]	100 to 500 nM
CCc1cc2c(s1)CCO[C@@]21CCN(CC2CN(C(=O)C(C)(C)O)C2)[C@@H](C)C1 [Compound 443]	< 100 nM
